According to patent publication EP0745595A1, “3-(3-Aryloxyphenyl)-1-(substituted methyl)-s-triazine-2,4,6-oxo or thiotrione herbicidal agents” (American Cyanamid Company, priority 1995, dated 1996):

Key:
Type in all cases: in vivo
SAGITTARIA PYGMAEA, L. = test: Preemergence weed control under flooded paddy conditions, SAGPY (Arrowhead (Pygmaea)); conditions: preemergence, 3-4 weeks after treatment
How it was run: (§1)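 Seeds or propagules sown in top 0.5 cm of silt loam in undrained containers, flooded 1.5 to 3 cm throughout. Compounds in aqueous/acetone 50/50 v/v pipetted into flood water at about 0.5, 0.25, 0.125 and 0.063 kg/ha. Visual 0-9 rating versus control after three to four weeks in greenhouse.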

[1] = test system: TRITICUM AESTIVUM, CV. APOLLO; test: Preemergence herbicidal evaluation, TRZAWO (Wheat, Winter, CV. APOLLO); conditions: rated four to five weeks after treatment
From the text: (§2) Results of herbicide evaluation are expressed on a rating scale (0-9). The scale is based upon a visual observation of plant stand, vigor, malformation, size, chlorosis and overall plant appearance as compared with a control.
(§3) The preemergence herbicidal activity of the test compounds of the present invention is exemplified by the following tests in which the seeds of a variety of monocotyledonous and dicotyledonous plants are separately mixed with potting soil and planted on top of approximately one inch of soil in separate pint cups. […] The treated cups are then placed on greenhouse benches, watered and cared for in accordance with conventional greenhouse procedures. From four to five weeks after treatment, the tests are terminated and each cup is examined and rated according to the rating system provided in Example 40.
(§4) The compounds evaluated are reported by compound number given in Example 40.

CHENOPODIUM ALBUM, L. = test: Preemergence herbicidal evaluation, CHEAL (Lambsquarters, Common); conditions: rated four to five weeks after treatment
How it was run: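 Injury scored visually (0–9; stand, vigor, malformation, size, chlorosis) versus untreated control, four to five weeks post-treatment. Application: aqueous acetone spray onto freshly planted soil cups, equivalent to about 0.125 to 0.50 kg/ha, plants then kept under standard greenhouse care.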

[2] = test system: AMBROSIA ARTEMISIIFOLIA, L.; test: Preemergence herbicidal evaluation, AMBEL (Ragweed, Common); conditions: rated four to five weeks after treatment
From the text: as §2, §3, §4

[3] = test system: ECHINOCHLOA CRUS-GALLI, (L) BEAU; test: Preemergence herbicidal evaluation, ECHCG (Barnyardgrass); conditions: rated four to five weeks after treatment
How it was run: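 Barnyardgrass seeds were mixed with potting soil and planted on about one inch of soil in pint cups for preemergence testing. Treated cups were kept on greenhouse benches, watered and maintained by standard greenhouse practice. After four to five weeks, each cup was visually rated on a 0-9 scale against an untreated control.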

[4] = test system: ABUTILON THEOPHRASTI, MEDIC.; test: Preemergence herbicidal evaluation, ABUTH (Velvetleaf); conditions: rated four to five weeks after treatment
From the text: as §2, §3, §4

[5] = test system: ORYZA SATIVA, L. TEBONNET; test: Rice tolerance to post-transplant applications under flooded paddy conditions, ORYSAT (Rice, Tebonnet); conditions: post-transplant rice, 3-4 weeks after treatment
How it was run: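 Two ten-day-old Tebonnet rice seedlings were transplanted into silt loam and kept flooded 1.5 to 3 cm deep. Three days after transplanting, the flood surface received the compound in aqueous/acetone 50/50 v/v at about 0.5, 0.25, 0.125 or 0.063 kg/ha. Injury was rated visually on a 0-9 scale versus control after 3-4 weeks.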

CASSIA OBTUSIFOLIA, L. = test: Preemergence herbicidal evaluation, CASOB (Sicklepod); conditions: rated four to five weeks after treatment
How it was run: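 Seeds of various monocot and dicot plants, including sicklepod, were each mixed with potting soil and sown on roughly one inch of soil in separate pint cups for preemergence testing. Treated cups were kept on greenhouse benches, watered and maintained conventionally. Four to five weeks after treatment, each cup was visually rated on a 0-9 scale against a control.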

GALIUM APARINE = test: Preemergence herbicidal evaluation, GALAP (Galium); conditions: rated four to five weeks after treatment
From the text: as §2, §3, §4

[6] = test system: CYPERUS SEROTINUS, ROTTB.; test: Preemergence weed control under flooded paddy conditions, CYPSE (Flatsedge); conditions: preemergence, 3-4 weeks after treatment
How it was run: as §1

IPOMOEA SPP. = test: Preemergence herbicidal evaluation, IPOSS (Morningglory spp.); conditions: rated four to five weeks after treatment
From the text: as §2, §3, §4

| Structure (SMILES) | Herbicidal effect rating, SAGPY (SAGITTARIA PYGMAEA, L.; 0.063 kg/ha) | Herbicidal effect rating, SAGPY (SAGITTARIA PYGMAEA, L.; 0.125 kg/ha) | Herbicidal effect rating, SAGPY (SAGITTARIA PYGMAEA, L.; 0.250 kg/ha) | Herbicidal effect rating, SAGPY (SAGITTARIA PYGMAEA, L.; 0.500 kg/ha) | TRZAWO herbicidal rating ([1]; Rate 0.125 kg/ha) | TRZAWO herbicidal rating ([1]; Rate 0.250 kg/ha) | AMBEL herbicidal rating ([2]; Rate 0.125 kg/ha) | AMBEL herbicidal rating ([2]; Rate 0.250 kg/ha) | Herbicidal effect rating, ORYSAT ([5]; 0.063 kg/ha) | Herbicidal effect rating, ORYSAT ([5]; 0.125 kg/ha) | Herbicidal effect rating, ORYSAT ([5]; 0.250 kg/ha) | Herbicidal effect rating, ORYSAT ([5]; 0.500 kg/ha) | further results |
| --- | --- | --- | --- | --- | --- | --- | --- | --- | --- | --- | --- | --- | --- |
| Cn1c(=O)n(CC(=O)OC(C)(C)C)c(=O)n(-c2cc(Oc3c(F)cc(C(F)(F)F)cc3Cl)ccc2F)c1=O [Compound 41, Tert-butyl 3-{[5-(2-chloro-α,α,α,6-tetra-fluoro-p-tolyl)oxy]-2-fluorophenyl}tetra-hydro-5-methyl-2,4,6-trioxo-s-triazine-1(2H)-acetate] | 0.0 | 0.0 | 0.0 | 0.0 | 0.0 | 0.0 | 0.0 | 0.0 | 0.0 | 0.0 | 0.0 | 0.0 | TRZAWO herbicidal rating ([1]; Rate 0.500 kg/ha): 0.0; CHEAL herbicidal rating (CHENOPODIUM ALBUM, L.; Rate 0.125 kg/ha): 9.0; CHEAL herbicidal rating (CHENOPODIUM ALBUM, L.; Rate 0.250 kg/ha): 9.0; CHEAL herbicidal rating (CHENOPODIUM ALBUM, L.; Rate 0.500 kg/ha): 9.0; AMBEL herbicidal rating ([2]; Rate 0.500 kg/ha): 0.0; ECHCG herbicidal rating ([3]; Rate 0.125 kg/ha): 0.0; ECHCG herbicidal rating ([3]; Rate 0.250 kg/ha): 0.0; ECHCG herbicidal rating ([3]; Rate 0.500 kg/ha): 0.0; ABUTH herbicidal rating ([4]; Rate 0.125 kg/ha): 0.0; ABUTH herbicidal rating ([4]; Rate 0.250 kg/ha): 0.0; ABUTH herbicidal rating ([4]; Rate 0.500 kg/ha): 0.0 |
| Cn1c(=O)n(CC(=O)OC(C)(C)C)c(=O)n(-c2cc(Oc3ccc(C(F)(F)F)cc3Cl)ccc2Cl)c1=O [Compound 40, Tert-butyl 3-{[2-chloro-5-(2-chloro-α,α,α-trifluoro-p-tolyl)oxy]phenyl}tetrahydro-5-methyl-2,4,6-trioxo-s-triazine-1(2H)-acetate] | 0.0 | 0.0 | 0.0 | 0.0 | 0.0 | 0.0 | 0.0 | 0.0 | 0.5 | 0.5 | 1.5 | 1.5 | CASOB herbicidal rating (CASSIA OBTUSIFOLIA, L.; Rate 0.125 kg/ha): 1.0; CASOB herbicidal rating (CASSIA OBTUSIFOLIA, L.; Rate 0.250 kg/ha): 1.0; GALAP herbicidal rating (GALIUM APARINE; Rate 0.125 kg/ha): 4.5; GALAP herbicidal rating (GALIUM APARINE; Rate 0.250 kg/ha): 4.5; Herbicidal effect rating, CYPSE ([6]; 0.063 kg/ha): 0.0; Herbicidal effect rating, CYPSE ([6]; 0.125 kg/ha): 0.0; Herbicidal effect rating, CYPSE ([6]; 0.250 kg/ha): 0.0; Herbicidal effect rating, CYPSE ([6]; 0.500 kg/ha): 0.0; IPOSS herbicidal rating (IPOMOEA SPP.; Rate 0.125 kg/ha): 0.5; IPOSS herbicidal rating (IPOMOEA SPP.; Rate 0.250 kg/ha): 0.5 |
